Here are results for four compounds from patent US10947366B2, “Hollow mineral tubes comprising essential oils and uses thereof” (TECHNION RESEARCH & DEVELOPMENT FOUNDATION LTD., priority 2015, dated 2021).

Where two headings read alike, the source gives them in different places.

Series [1] is described as follows: EO content in films after melt compounding and processing, determined by TGA. It is filed as physicochemical. Conditions: pure EO in LDPE film without HNTs, initial 4 %. The method, then: (§1) Hybrids were characterized by thermal gravimetric analysis (TGA) using TGA-Q5000 system (TA instruments, USA) at a heating rate of 20° C./min under nitrogen atmosphere, starting at room temperature up to 600° C.
Table 4 below summarizes the carvacrol and HNTs content in different films (following melt compounding and processing) determined by TGA (initial carvacrol content, pre-processing, was 4 wt % and initial HNTs content was 2 wt %).
The resulting films were studied by thermal gravimetric analysis (TGA) in order to examine the effect of the HNTs carriers on the residual carvacrol content following the harsh high-temperature melt-compounding and processing of PA. Table 5 summarizes the results of these experiments showing carvacrol content in different carvacrol-containing films, determined by TGA.
The EOs content and distribution within the LDPE matrix are important parameters, crucial in determining the mechanical and antimicrobial performance of the nanocomposite systems (R. Shemesh et al., 2015). Thus, the total volatile content within the LDPE-based films was investigated using TGA, and the results are summarized in Table 14 showing carvacrol and thymol concentrations in different LDPE-based films as determined by TGA and FTIR spectroscopy.

A short description of series [2]: Thermal gravimetric analysis (TGA) of EOs and HNTs/EO hybrids, thermal stability. Conditions: 20° C./min, nitrogen. The series is classed as physicochemical. The method, then: as §1
Thermal gravimetric analysis (TGA) is performed using TGA-Q5000 system (TA Instruments, USA). Samples are heated under nitrogen atmosphere from room temperature to 600° C. at a heating rate of 20° C. min^−1. The results are analyzed using Universal […] version 4.5A build 4.5.0.5 software.

The conditions of series [3]: at 20° C.-25° C.; cited from earlier work.
Series [4] concerns E. coli. In words: Agar diffusion assay (Kirby-Bauer disk diffusion) of LDPE-based films. It is filed as cell-based. To be noted: dose additivity model. The method, then: Fresh LDPE/(HNTs/CV-TY), LDPE/(HNTs/CV) and LDPE/TY films (12 mm in diameter and 150 μm thick) were conditioned at 60° C. for different time intervals to accelerate the release of the EOs from the films. The films were sampled after different durations, and the content of the respective EOs were determined by Fourier-transform infrared spectroscopy in transmission mode. Subsequently, the discs were placed onto the surface of a Luria broth (LB) agar plate seeded with 10^8 CFU ml^−1 of E. coli culture (0.1 mL). […] All tests were performed in triplicates, and at least 15 different specimens are studied for each film type of each. Neat LDPE films were used as a negative control.
Interactions between CV and TY were assessed based on the results obtained by the agar diffusion assay studies. Two common models of synergistic activity are applied:
(1) effect additivity (Axelrad, Howard, & McLean, 2002) and (2) dose additivity (Berenbaum, 1978). […] The second model is based on building curves that illustrate various combinations of two antimicrobials that produce the same effect. Antimicrobial doses of the same efficiency are connected by the additivity line that predicts a zero interaction. Deviations from this prediction can be interpreted as antagonism or synergy. […]

Series [5] relates to E. coli (ATCC 8739). In words: Chequerboard antimicrobial susceptibility to pure carvacrol, thymol and their combinations. Conditions: Escherichia coli, ATCC8739. It is filed as cell-based. The method, then:
Bacterial susceptibility to pure carvacrol, thymol and their mixtures was characterized by the standard chequerboard procedure for antimicrobial susceptibility for combination of antimicrobials (Franzot & Casadevall, 1997; Pei, Zhou, Ji, & Xu, 2009).
Accordingly, in exemplary procedures, stock aqueous emulsions of thymol and carvacrol (at a concentration of 6400 mg L^−1 in MillyQ water, […]) are prepared by ultrasonication (Vibra cell VCX 750, Sonics & Materials Inc., USA) for 3 min at a constant amplitude of 40%, on ice bath using small amounts of Tween-80. […] The plate is sealed with SealPlate® (Excel Scientific Inc., Victorville, CV, US) incubated at 37° C. for 4 h under gentle shacking in a microplate reader (Varioskan Flash, Thermo Scientific, USA). Absorbance measurements are recorded at 600 nm every 3 min. […]
The MIC of carvacrol and thymol and their combination against E. coli (ATCC 8739) were determined using the standard chequerboard procedure for antimicrobial susceptibility for combination of antimicrobials (Franzot & Casadevall, 1997; Pei et al., 2009).
FIG. 13A presents characteristic E. coli growth curves in media containing a constant thymol concentration (75 mg L^−1) and varying carvacrol concentrations (0 to 200 mg L^−1). […] While at a lower concentration (100 mg L^−1), a profound lag time of ˜200 min in bacterial growth is recorded. […]

Take `Cc1ccc(C(C)C)cc1O` [carvacrol, Carvacrol]: the “reduction of EO concentration during high-temperature processing” value in series [1] was 55%. Further, the “temperature at which weight loss (evaporation) of the EO is completed” value in series [2] was “about 165 °C”. Further, in series [3], the vapor pressure is on record as 0.023 mmHg. Moreover, the “in-film EO concentration giving 19 mm inhibition zone” value in series [4] came to 1.5%. Besides, the minimal inhibitory concentration (MIC) in series [5] turned out to be 200 µg/mL.

For `CC(C)=CCCC(C)=CC=O` [citral, Citral], the vapor pressure in series [3] is on record as 0.22 mmHg.

As to `C=CC(C)(O)CCC=C(C)C` (centres unmarked) [linalool, Linalool], in series [3], the vapor pressure is on record as 0.17 mmHg.

Take `Cc1ccc(C(C)C)c(O)c1` [thymol, Thymol]: in series [1], the “reduction of EO concentration during high-temperature processing” value stood at 35%. In addition, the vapor pressure in series [3] is recorded as 0.002 mmHg. In series [4], the “in-film EO concentration giving 19 mm inhibition zone” value was 1.4%. In addition, in series [5] (LB medium, 37° C., 4 h, inhibition = lag time above 200 min, read-out: MIC), the MIC came to 300 µg/mL.
